In experiment [1] the target is T1, SMYD3 (Homo sapiens (Human), UniProt Q9H7B4). The experiment can be described thus: SMYD3 cell assay (Trimethyl-MEKK2 In-Cell Western in 293T/17 cells). The class given is cell-based. In a few lines: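 In-Cell Western ratio of trimethyl-Lys260 MEKK2 to anti-flag signal; percent inhibition from DMSO and maximum-inhibition controls, IC50 by non-linear regression, triplicates.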

The target of experiment [2] is T1, SMYD3. Nature of the experiment: SMYD3 biochemical assay (SPA, 3H-SAM methylation of MEKK2 protein substrate). The essentials: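 Native full-length human SMYD3 (E. coli-expressed, tags removed) was preincubated with compound for 30 min at room temperature in 25 mM Tris-Cl pH 8.0, 1 mM TCEP, 0.005% BSG, 0.005% Tween 20. Reaction was started with 3H-SAM plus GST-MEKK2, quenched with 100 uM unlabeled SAM, and read by SPA scintillation counting.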

Setting [3] is: 293T/17 cells, read-out: SMYD3 Cell IC50 (μM)*.
The mark [4] stands for this setting: read-out: SMYD3 Biochem IC50 (μM)*.
Where [5] appears, read: Table 1A, IC50 values are an average of n = 1 to n = 50, read-out: SMYD3 Cell IC50.
Setting [6] is: Table 1A, IC50 values are an average of n = 1 to n = 50, read-out: SMYD3 Biochem IC50.

T1 sequence (Q9H7B4 whole entry): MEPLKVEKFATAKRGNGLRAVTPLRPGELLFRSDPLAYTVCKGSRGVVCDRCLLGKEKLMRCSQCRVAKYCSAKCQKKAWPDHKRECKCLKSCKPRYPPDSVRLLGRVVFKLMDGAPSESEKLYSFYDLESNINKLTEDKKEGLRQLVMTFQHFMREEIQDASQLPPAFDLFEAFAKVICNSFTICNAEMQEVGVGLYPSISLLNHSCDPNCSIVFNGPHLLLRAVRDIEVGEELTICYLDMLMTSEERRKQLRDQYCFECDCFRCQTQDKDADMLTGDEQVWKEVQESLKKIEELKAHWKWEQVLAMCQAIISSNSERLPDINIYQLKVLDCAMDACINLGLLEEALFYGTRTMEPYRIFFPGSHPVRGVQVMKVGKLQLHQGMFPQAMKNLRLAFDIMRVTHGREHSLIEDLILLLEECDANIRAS

Take `C[C@H]1C[C@@H](NC(=O)c2cc(C3CC3)on2)CCN1S(=O)(=O)c1cccc(C(N)=O)c1` [compound 477, N-((2S,4S)-1-((3-carbamoylphenyl)sulfonyl)-2-methylpiperidin-4-yl)-5-cyclopropylisoxazole-3-carboxamide]: the results for the IC50 on SMYD3 [1] (setting [3]) and at SMYD3 [2] (setting [4]) were 3.26 µM and 0.932 µM, respectively.

Regarding `C[C@H]1C[C@@H](NC(=O)c2cc(C3CC3)on2)CCN1C(=O)N1CCN(Cc2ccccc2)CC1` [compound 478, N-((2S,4S)-1-(4-benzylpiperazine-1-carbonyl)-2-methylpiperidin-4-yl)-5-cyclopropylisoxazole-3-carboxamide], the IC50 at SMYD3 [1] (setting [3]) and on SMYD3 [2] (setting [4]) was above 10 µM in each case.

As for `NCCCS(=O)(=O)N1CCC(NC(=O)c2cc(C3CC3)on2)C[C@@H]1c1ccccc1` (stereo partly drawn) [compound 480, N-((2R)-1-((3-aminopropyl)sulfonyl)-2-phenylpiperidin-4-yl)-5-cyclopropylisoxazole-3-carboxamide], the IC50 at SMYD3 [1] (setting [3]) was determined as 2.24 µM; at SMYD3 [2] (setting [4]) it was 0.0658 µM.

Regarding `NCCCS(=O)(=O)N1CCC(NC(=O)c2cc(C3CC3)on2)C[C@H]1c1ccccc1` (stereo partly drawn) [compound 481, N-((2S)-1-((3-aminopropyl)sulfonyl)-2-phenylpiperidin-4-yl)-5-cyclopropylisoxazole-3-carboxamide], the IC50 at SMYD3 [1] (setting [3]) amounted to 4.47 µM; on SMYD3 [2] (setting [4]), 0.479 µM.

Take `C[C@H]1C[C@@H](NC(=O)c2cc(C3CC3)on2)CCN1S(=O)(=O)C1CCOC1` (stereo partly drawn) [compound 482, 5-cyclopropyl-N-((2S,4S)-2-methyl-1-((tetrahydrofuran-3-yl)sulfonyl)piperidin-4-yl)isoxazole-3-carboxamide]: the IC50 at SMYD3 [1] (setting [3]) stood at 2.83 µM; at SMYD3 [2] (setting [4]), 0.928 µM.

As for `C[C@H]1C[C@@H](NC(=O)c2cc(C3CC3)on2)CCN1S(=O)(=O)c1c[nH]cn1` [compound 483, N-((2S,4S)-1-((1H-imidazol-4-yl)sulfonyl)-2-methylpiperidin-4-yl)-5-cyclopropylisoxazole-3-carboxamide], the 50% inhibitory concentration (IC50) came out at 2.13 µM on SMYD3 [1] (setting [3]) and 0.533 µM at SMYD3 [2] (setting [4]).

Consider `NCCCS(=O)(=O)N1[C@@H]2CC[C@H]1C[C@H](NC(=O)c1cc(C3CC3)on1)C2` [compound 484, N-((1R,3s,5S)-8-((3-aminopropyl)sulfonyl)-8-azabicyclo[3.2.1]octan-3-yl)-5-cyclopropylisoxazole-3-carboxamide], for which the figures for the IC50 on SMYD3 [1] (setting [3]) and on SMYD3 [2] (setting [4]) were 1.44 µM and 0.0792 µM, respectively.

On to `O=C(NC1CC2CCCC(C1)N2S(=O)(=O)CC1CCCNC1)c1cc(C2CC2)on1` (stereo not shown) [compound 488, 5-cyclopropyl-N-(9-((piperidin-3-ylmethyl)sulfonyl)-9-azabicyclo[3.3.1]nonan-3-yl)isoxazole-3-carboxamide], for which the IC50 at SMYD3 [1] (setting [5]) stood at 0.857 µM; on SMYD3 [2] (read-out: SMYD3 Biochem IC50), 0.0451 µM.

As to `O=C(Nc1ccc(S(=O)(=O)N2[C@@H]3CC[C@H]2C[C@H](NC(=O)c2cc(C4CC4)on2)C3)cc1)c1ccncc1` [compound 489, 5-cyclopropyl-N-((1R,3s,5S)-8-((4-(isonicotinamido)phenyl)sulfonyl)-8-azabicyclo[3.2.1]octan-3-yl)isoxazole-3-carboxamide], the IC50 on SMYD3 [1] (setting [5]) came out at 6.66 µM; at SMYD3 [2] (setting [6]) it was 5.42 µM.

`O=C1Cc2cc(S(=O)(=O)N3[C@@H]4CC[C@H]3C[C@H](NC(=O)c3cc(C5CC5)on3)C4)c(Cl)cc2N1` [compound 490, N-((1R,3s,5S)-8-((6-chloro-2-oxoindolin-5-yl)sulfonyl)-8-azabicyclo[3.2.1]octan-3-yl)-5-cyclopropylisoxazole-3-carboxamide]: the IC50 on SMYD3 [1] (setting [5]) is above 10 µM; on SMYD3 [2] (setting [6]), 9.23 µM.

For the molecule `O=C(N[C@@H]1C[C@H]2CC[C@@H](C1)N2S(=O)(=O)c1cc2oc(=O)[nH]c2cc1Cl)c1cc(C2CC2)on1` [compound 491, N-((1R,3s,5S)-8-((5-chloro-2-oxo-2,3-dihydrobenzo[d]oxazol-6-yl)sulfonyl)-8-azabicyclo[3.2.1]octan-3-yl)-5-cyclopropylisoxazole-3-carboxamide], the IC50 on SMYD3 [1] (setting [5]) and at SMYD3 [2] (setting [6]) was above 10 µM each time.

As for `O=C1Cc2cc(S(=O)(=O)N3[C@@H]4CC[C@H]3C[C@H](NC(=O)c3cc(C5CC5)on3)C4)ccc2N1` [compound 493, 5-cyclopropyl-N-((1R,3s,5S)-8-((2-oxoindolin-5-yl)sulfonyl)-8-azabicyclo[3.2.1]octan-3-yl)isoxazole-3-carboxamide], the IC50 on SMYD3 [1] (setting [5]) worked out at 2.75 µM; at SMYD3 [2] (setting [6]), 0.842 µM.

In the case of `O=C(N[C@@H]1C[C@H]2CC[C@@H](C1)N2S(=O)(=O)CCCN1CCOCC1)c1cc(C2CC2)on1` [compound 495, 5-cyclopropyl-N-((1R,3s,5S)-8-((3-morpholinopropyl)sulfonyl)-8-azabicyclo[3.2.1]octan-3-yl)isoxazole-3-carboxamide], the IC50 at SMYD3 [1] (setting [5]) and at SMYD3 [2] (setting [6]) was above 10 µM each time.

Take `O=C(N[C@H]1C[C@H]2CC[C@@H](C1)N2S(=O)(=O)CCCN1CCOCC1)c1cc(C2CC2)on1` [compound 496, 5-cyclopropyl-N-((1R,3r,5S)-8-((3-morpholinopropyl)sulfonyl)-8-azabicyclo[3.2.1]octan-3-yl)isoxazole-3-carboxamide]: the IC50 on SMYD3 [1] (setting [5]) came to 0.854 µM; on SMYD3 [2] (setting [6]), 0.162 µM.

Take `O=C(N[C@H]1CCN(S(=O)(=O)CCCN2CCOCC2)[C@@H](Cc2ccccc2)C1)c1cc(C2CC2)on1` [compound 497, N-((2S,4S)-2-benzyl-1-((3-morpholinopropyl)sulfonyl)piperidin-4-yl)-5-cyclopropylisoxazole-3-carboxamide]: the IC50 on SMYD3 [1] (setting [5]) and on SMYD3 [2] (setting [6]) was above 10 µM in each case.

As to `O=C(N[C@H]1CCN(S(=O)(=O)CCCN2CCOCC2)[C@H](Cc2ccccc2)C1)c1cc(C2CC2)on1` [compound 498, N-((2R,4S)-2-benzyl-1-((3-morpholinopropyl)sulfonyl)piperidin-4-yl)-5-cyclopropylisoxazole-3-carboxamide], the figures for the IC50 on SMYD3 [1] (setting [5]) and at SMYD3 [2] (setting [6]) were above 10 µM and 9.96 µM, respectively.

In the case of `O=C(N[C@H]1CCN(S(=O)(=O)CCN2CCOCC2)[C@H](Cc2ccccc2)C1)c1cc(C2CC2)on1` [compound 499, N-((2R,4S)-2-benzyl-1-((2-morpholinoethyl)sulfonyl)piperidin-4-yl)-5-cyclopropylisoxazole-3-carboxamide], the IC50 at SMYD3 [1] (setting [5]) and at SMYD3 [2] (setting [6]) was above 10 µM in each case.

Turning to `CC(C)[C@@H]1C[C@H](NC(=O)c2cc(C3CC3)on2)CCN1S(=O)(=O)CCCN` [compound 502, N-((2S,4R)-1-((3-aminopropyl)sulfonyl)-2-isopropylpiperidin-4-yl)-5-cyclopropylisoxazole-3-carboxamide], the IC50 was above 10 µM at SMYD3 [1] (setting [5]) and 0.766 µM on SMYD3 [2] (setting [6]).

As to `CC(C)[C@H]1C[C@H](NC(=O)c2cc(C3CC3)on2)CCN1S(=O)(=O)CCCN` [compound 503, N-((2R,4R)-1-((3-aminopropyl)sulfonyl)-2-isopropylpiperidin-4-yl)-5-cyclopropylisoxazole-3-carboxamide], the IC50 at SMYD3 [1] (setting [5]) is above 10 µM; on SMYD3 [2] (setting [6]), 1.06 µM.

For `COCCN(C)c1ccc(S(=O)(=O)N2CC[C@H](NC(=O)c3cc(C4CC4)on3)C[C@H]2C)cn1` [compound 504, 5-cyclopropyl-N-((2R,4S)-1-((6-((2-methoxyethyl)(methyl)amino)pyridin-3-yl)sulfonyl)-2-methylpiperidin-4-yl)isoxazole-3-carboxamide], the IC50 at SMYD3 [1] (setting [5]) and at SMYD3 [2] (setting [6]) was above 10 µM in each case.

For orientation: IC50 means the midpoint of a concentration-inhibition curve.

These data come from patent US10577363B2, “Substituted piperidine compounds” (EPIZYME, INC., priority 2014, dated 2020).
